This note sets out measurements from patent US4351829A, “Use of polypeptides as analgesic drugs” (Farmitalia Carlo Erba Spa, priority 1980, dated 1982).

Read-outs that look alike come from different tables or passages of the source. Square brackets hold non-standard residues; d marks the D form. Peptide text beside a SMILES is read from it. sY = N[C@@H](Cc1ccc(OS(=O)(=O)O)cc1)C(=O)O; pGlu = O=C1CC[C@@H](C(=O)O)N1

For data set [1] the following is noted: cancer patients; intravenous bolus 1 nanogram/kg.
Excerpt: The average dosages for Cerulitide were from 0.5 nanograms/kg body weight (i.v.) to 300 nonograms/kg body weight (intramusculary), depending upon the treated pains, as set forth in the following examples.

Take `CSCC[C@H](NC(=O)[C@H](Cc1c[nH]c2ccccc12)NC(=O)CNC(=O)[C@@H](NC(=O)[C@H](Cc1ccc(OS(=O)(=O)O)cc1)NC(=O)[C@H](CC(=O)O)NC(=O)[C@H](CCC(N)=O)NC(=O)[C@@H]1CCC(=O)N1)[C@@H](C)O)C(=O)N[C@@H](CC(=O)O)C(=O)N[C@@H](Cc1ccccc1)C(N)=O` [Ceruletide] ([pGlu]QD[sY]TGWMDF-NH2): the Side-effects entry in data set [1] is reported as “None”; the Side-effects entry (intramuscular 0.05 micrograms/kg, first injection) was “None”; the Side-effects result (intramuscular 0.1 micrograms/kg) was “None and Burning sensation at the injection site and pain sensation at the injection site”; the Side-effects entry (second intramuscular injection 0.05 micrograms/kg) was “None”.
